Like-named read-outs stand apart in the source and are kept apart here.
System: mites
Test: Mite killing efficacy test with an in vitro model
Conditions: 30 µM drug solution
Method: Mite collection: Live mites were gently picked up from a cage box with cotton swabs or small tweezers, 17-26 live mites per group.
Drug treatment and detection method: 100 µL of a drug solution with a different concentration (drug solution prepared by 3% DMSO solution + 97% water and having a target final concentration of 30 µM) was aspirated with a pipette and added to a 24-well plate for each group, ensuring full contact between the drug and the mites. The mites were separately incubated at normal temperature for 5 min, transferred from each plate to another dry 24-well plate with the top sealed, and air-dried for about 1 h. Mite actions were observed, and the number of dead mites/the total number of mites was recorded. Then, the 24-well plate containing the mites was cultured at room temperature and relatively high humidity. The number of dead mites/the total number of mites was counted separately after 1 h, 2 h, 4 h, 6 h, 8 h, 22 h, and 24 h (time points after drug addition), and mite mortality rates were calculated. The project ended 24 h after drug addition.
At a corresponding time point, a mite mortality rate greater than or equal to 90% is denoted as "+++", a mite mortality rate less than 90% and greater than or equal to 50% is denoted as "++", and a mite mortality rate less than 50% is denoted as "+".

[1] = 4 h after drug addition, read-out: Mite Mortality Rate 4 h
[2] = 24 h after drug addition, read-out: Mite Mortality Rate 24 h

| Compound | Mite Mortality Rate 4 h (4 h after drug addition) | Mite Mortality Rate 24 h (24 h after drug addition) | mortality at 30 µM [1] [%] | mortality at 30 µM [2] [%] |
| --- | --- | --- | --- | --- |
| Cc1cc(C2=NOC(c3cc(Cl)cc(C(F)(F)F)c3)(C(F)(F)F)C2)ccc1C(=O)NCC(=O)NC1(C(F)(F)F)CC1 (racemic) [Example 007, 4-(5-(3-chloro-5-(trifluoromethyl)phenyl)-5-(trifluoromethyl)-4,5-dihydroisoxazol-3-yl)-2-methy 1-N-(2-oxo-2-((1-(trifluoromethyl)cyclopropyl)amino)ethyl)benzamide] | ++ (a mite mortality rate less than 90% and greater than or equal to 50% is denoted as "++") | +++ (a mite mortality rate greater than or equal to 90% is denoted as "+++") |  |  |
| Cc1cc(C2=NOC(c3cc(Cl)c(F)c(Cl)c3)(C(F)(F)F)C2)ccc1C(=O)NCC(=O)NC1(C(F)(F)F)CC1 (centres unmarked) [Example 001, 4-(5-(3,5-dichloro-4-fluorophenyl)-5-(trifluoromethyl)-4,5-dihydroisoxazol-3-yl)-2-methyl-N-(2-oxo-2-((1-(trifluoromethyl)cyclopropyl)amino)ethyl)benzamide] |  |  | < 50 | > 90 |
| Cc1cc(C2=NOC(c3cc(Cl)cc(Cl)c3)(C(F)(F)F)C2)ccc1C(=O)NCC(=O)NC1(C(F)(F)F)COC1 (centres unmarked) [Example 002, 4-(5-(3,5-dichlorophenyl)-5-(trifluoromethyl)-4,5-dihydroisoxazol-3-yl)-2-methyl-N-(2-oxo-2-((3-(trifluoromethyl)oxetan-3-yl)amino)ethyl)benzamide] |  |  | < 50 | > 90 |
| Cc1cc(C2=NOC(c3cc(Cl)c(Cl)c(Cl)c3)(C(F)(F)F)C2)ccc1C(=O)NCC(=O)N1CC(F)(CF)C1 (centres unmarked) [Example 003, N-(2-(3-fluoro-3-(fluoromethyl)azetidin-1-yl)-2-oxoethyl)-2-methyl-4-(5-(3,4,5-trichlorophenyl) -5-(trifluoromethyl)-4,5-dihydroisoxazol-3-yl)benzamide] |  |  | < 50 | > 90 |
| Cc1cc(C2=NOC(c3cc(Cl)c(Cl)c(Cl)c3)(C(F)(F)F)C2)ccc1C(=O)NCC(=O)NC1(C(F)(F)F)CC1 (centres unmarked) [Example 004, 2-methyl-N-(2-oxo-2-((1-(trifluoromethyl)cyclopropyl)amino)ethyl)-4-(5-(3,4,5-trichlorophenyl) -5-(trifluoromethyl)-4,5-dihydroisoxazol-3-yl)benzamide] |  |  | < 50 | > 90 |
| Cc1cc(C2=NOC(c3cc(Cl)c(F)c(Cl)c3)(C(F)(F)F)C2)ccc1C(=O)NCC(=O)N1CC(F)(CF)C1 (centres unmarked) [Example 005, 4-(5-(3,5-dichloro-4-fluorophenyl)-5-(trifluoromethyl)-4,5-dihydroisoxazol-3-yl)-N-(2-(3-fluoro-3-(fluoromethyl)azetidin-1-yl)-2-oxoethyl)-2-methylbenzamide] |  |  | 50 to 90 | > 90 |
| Cc1cc(C2=NOC(c3cc(Cl)cc(Cl)c3)(C(F)(F)F)C2)ccc1C(=O)NCC(=O)N1CCC1C(F)(F)F (centres unmarked) [Example 006, 4-(5-(3,5-dichlorophenyl)-5-(trifluoromethyl)-4,5-dihydroisoxazol-3-yl)-2-methyl-N-(2-oxo-2-(2-(trifluoromethyl)azetidin-1-yl)ethyl)benzamide] |  |  | < 50 | > 90 |
| Cc1cc(C2=NO[C@](c3cc(Cl)cc(C(F)(F)F)c3)(C(F)(F)F)C2)ccc1C(=O)NCC(=O)NC1(C(F)(F)F)CC1 [Example 009, (R)-4-(5-(3-chloro-5-(trifluoromethyl)phenyl)-5-(trifluoromethyl)-4,5-dihydroisoxazol-3-yl)-2-m ethyl-N-(2-oxo-2-((1-(trifluoromethyl)cyclopropyl)amino)ethyl)benzamide] |  |  | < 50 | < 50 |
| Cc1cc(C2=NOC(c3cc(Cl)cc(Cl)c3)(C(F)(F)F)C2)ccc1C(=O)NCC(=O)NC1(C(F)(F)F)CC1 (centres unmarked) [Example 010, 4-(5-(3,5-dichlorophenyl)-5-(trifluoromethyl)-4,5-dihydroisoxazol-3-yl)-2-methyl-N-(2-oxo-2-((1-(trifluoromethyl)cyclopropyl)amino)ethyl)benzamide] |  |  | 50 to 90 | > 90 |
| Cc1cc(C2=NO[C@](c3cc(Cl)cc(Cl)c3)(C(F)(F)F)C2)ccc1C(=O)NCC(=O)NC1(C(F)(F)F)CC1 [Example 012, (R)-4-(5-(3,5-dichlorophenyl)-5-(trifluoromethyl)-4,5-dihydroisoxazol-3-yl)-2-methyl-N-(2-oxo-2-((1-(trifluoromethyl)cyclopropyl)amino)ethyl)benzamide] |  |  | < 50 | < 50 |
| Cc1cc(C2=NOC(c3cc(Cl)cc(C(F)(F)F)c3)(C(F)(F)F)C2)ccc1C(=O)NCC(=O)N1CC(F)(CF)C1 (centres unmarked) [Example 013, 4-(5-(3-chloro-5-(trifluoromethyl)phenyl)-5-(trifluoromethyl)-4,5-dihydroisoxazol-3-yl)-N-(2-(3-fluoro-3-(fluoromethyl)azetidin-1-yl)-2-oxoethyl)-2-methylbenzamide] |  |  | > 90 | > 90 |
| Cc1cc(C2=NOC(c3cc(Cl)cc(Cl)c3)(C(F)(F)F)C2)ccc1C(=O)NCC(=O)N1CC(O)(C(F)(F)F)C1 (centres unmarked) [Example 014, 4-(5-(3,5-dichlorophenyl)-5-(trifluoromethyl)-4,5-dihydroisoxazol-3-yl)-N-(2-(3-hydroxy-3-(trifluoromethyl)azetidin-1-yl)-2-oxoethyl)-2-methylbenzamide] |  |  | < 50 | < 50 |
| Cc1cc(C2=NOC(c3cc(Cl)cc(Cl)c3)(C(F)(F)F)C2)ccc1C(=O)NCC1(NCC(F)(F)F)COC1 (centres unmarked) [Example 015] | + (a mite mortality rate less than 50% is denoted as "+") | + (a mite mortality rate less than 50% is denoted as "+") |  |  |
| Cc1cc(C2=NOC(c3cc(Cl)cc(Cl)c3)(C(F)(F)F)C2)ccc1C(=O)NCC(=O)N1CCCC1C(F)(F)F (centres unmarked) [Example 016, 4-(5-(3,5-dichlorophenyl)-5-(trifluoromethyl)-4,5-dihydroisoxazol-3-yl)-2-methyl-N-(2-oxo-2-(2-(trifluoromethyl)pyrrolidin-1-yl)ethyl)benzamide] |  |  | < 50 | < 50 |
| Cc1cc(C2=NOC(c3cc(Cl)cc(Cl)c3)(C(F)(F)F)C2)ccc1C(=O)NCC1(NCC(F)(F)F)CC1 (centres unmarked) [Example 017] | + (a mite mortality rate less than 50% is denoted as "+") | ++ (a mite mortality rate less than 90% and greater than or equal to 50% is denoted as "++") |  |  |
| Cc1cc(C2=NOC(c3cc(Cl)cc(Cl)c3)(C(F)(F)F)C2)ccc1C(=O)NCC(=O)NCC1(C(F)(F)F)CC1 (centres unmarked) [Example 018] | + (a mite mortality rate less than 50% is denoted as "+") | ++ (a mite mortality rate less than 90% and greater than or equal to 50% is denoted as "++") |  |  |
| Cc1cc(C2=NOC(c3cc(Cl)cc(Cl)c3F)(C(F)(F)F)C2)ccc1C(=O)NCC(=O)NC1(C(F)(F)F)CC1 (centres unmarked) [Example 019, 4-(5-(3,5-dichloro-2-fluorophenyl)-5-(trifluoromethyl)-4,5-dihydroisoxazol-3-yl)-2-methyl-N-(2-oxo-2-((1-(trifluoromethyl)cyclopropyl)amino)ethyl)benzamide] |  |  | 50 to 90 | > 90 |
| Cc1cc(C2=NOC(c3cc(Cl)cc(Cl)c3Cl)(C(F)(F)F)C2)ccc1C(=O)NCC(=O)NC1(C(F)(F)F)CC1 (centres unmarked) [Example 020, 2-methyl-N-(2-oxo-2-((1-(trifluoromethyl)cyclopropyl)amino)ethyl)-4-(5-(2,3,5-trichlorophenyl) -5-(trifluoromethyl)-4,5-dihydroisoxazol-3-yl)benzamide] |  |  | < 50 | 50 to 90 |
| Cc1cc(C2=NOC(c3cc(Cl)cc(Cl)c3)(C(F)(F)F)C2)ccc1C(=O)NCC(=O)N1CC(F)(C#N)C1 (centres unmarked) [Example 021, N-(2-(3-cyano-3-fluoroazetidin-1-yl)-2-oxoethyl)-4-(5-(3,5-dichlorophenyl)-5-(trifluoromethyl)-4,5-dihydroisoxazol-3-yl)-2-methylbenzamide] |  |  | < 50 | < 50 |
| Cc1cc(C2=NOC(c3cc(Cl)cc(Cl)c3)(C(F)(F)F)C2)ccc1C(=O)NCC(=O)N1CC(F)(F)C1 (centres unmarked) [Example 022, 4-(5-(3,5-dichlorophenyl)-5-(trifluoromethyl)-4,5-dihydroisoxazol-3-yl)-N-(2-(3,3-difluoroazetidin-1-yl)-2-oxoethyl)-2-methylbenzamide] |  |  | < 50 | 50 to 90 |
| Cc1cc(C2=NOC(c3cc(Cl)cc(Cl)c3)(C(F)(F)F)C2)ccc1C(=O)NCC(=O)N1CC(C(F)(F)F)C1 (centres unmarked) [Example 023, 4-(5-(3,5-dichlorophenyl)-5-(trifluoromethyl)-4,5-dihydroisoxazol-3-yl)-2-methyl-N-(2-oxo-2-(3-(trifluoromethyl)azetidin-1-yl)ethyl)benzamide] |  |  | < 50 | 50 to 90 |
| Cc1cc(C2=NOC(c3cc(Cl)cc(Cl)c3)(C(F)(F)F)C2)ccc1C(=O)NCC(=O)NC1(C#N)CC1 (centres unmarked) [Example 024, N-(2-((1-cyanocyclopropyl)amino)-2-oxoethyl)-4-(5-(3,5-dichlorophenyl)-5-(trifluoromethyl)-4,5-dihydroisoxazol-3-yl)-2-methylbenzamide] |  |  | < 50 | > 90 |
